pIC50: −log10 of the molar value. Where a name gives a salt, the structure may show the parent alone. Read-outs that look alike come from different tables or passages of the source.
Legend:
[1] = system: Human leukemia MV4-11 cells; test: Cell growth, CellTiter-Fluor viability assay; type: cell-based; conditions: 48 h incubation, read-out: IC50 [μM] cell growth inhibitory assay
Description: CellTiter-Flor® (Promega) is a nonlytic, single-reagent-addition fluorescence assay that measures the relative number of living cells in a culture population after experimental manipulation. The CellTiter-Fluor™ Cell Viability Assay measures the conserved and constitutive protease activity within live cells and therefore acts as a marker for cell viability.
Human leukemia MV4-11 cells, (obtained from the Deutsche Sammlung von Mikroorganismen and Zellkulturen, ACC 102) in exponential growth, were incubated for 48 h with different concentrations of the inhibitors (e.g. from 0 to 100 μM). After 48 h a volume of CellTiterFluor® Reagent equal to the volume of cell culture medium was added. The content was mixed and incubates for at least 90 min at 37° C. degree to obtain a stable signal. The fluorescence was recorded using an excitation wavelength of 360 nm and an emission at 535 nm. The IC50 was calculated using GraphPad Software.

Human recombinant MAO A = target: T1, Human recombinant MAO A (Homo sapiens, UniProt P21397); test: Bioluminescent-coupled assay for monoamine oxidases (MAO-Glo), MAO-A; type: biochemical; conditions: for IC50 (MAO-A)/ IC50 (LSD1): ratio, 15 min preincubation of compound with enzyme
T1 construct: made in house; host or cells: Pichia pastoris
T1 sequence (P21397 1-527): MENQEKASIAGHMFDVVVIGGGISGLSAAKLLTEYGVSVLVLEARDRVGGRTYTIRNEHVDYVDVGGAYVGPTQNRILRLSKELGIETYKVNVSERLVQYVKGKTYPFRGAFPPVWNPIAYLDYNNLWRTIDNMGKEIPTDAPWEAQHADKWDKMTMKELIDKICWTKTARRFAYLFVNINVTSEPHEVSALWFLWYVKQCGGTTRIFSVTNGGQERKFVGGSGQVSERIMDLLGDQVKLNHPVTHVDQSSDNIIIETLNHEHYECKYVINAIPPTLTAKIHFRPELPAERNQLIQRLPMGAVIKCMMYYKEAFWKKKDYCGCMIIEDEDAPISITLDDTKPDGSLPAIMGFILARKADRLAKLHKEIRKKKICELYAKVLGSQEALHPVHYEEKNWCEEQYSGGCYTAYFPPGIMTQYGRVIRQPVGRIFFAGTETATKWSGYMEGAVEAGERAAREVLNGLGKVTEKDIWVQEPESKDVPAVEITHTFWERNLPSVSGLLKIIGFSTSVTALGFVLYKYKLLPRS
Experimental: The MAO-Glo Assay from Promega (cat. V1402, Promega, Madison, Wis.) was used to measure the effect of inhibitors on MAO-A and MAO-B activity.
Human recombinant MAO A and MAO B were expressed in Pichia pastoris and purified as published (Binda C. et al. Proc. Natl. Acad. Sci. USA, 2003, 9750-9755). The assay was performed at RT in 50 μL (25 μL reaction solution+25 μL detection reagent) in 96 well half area white plates (cat. 3693, Corning, Corning, N.Y.). Luminescence was measured after 20 min incubation in the dark using a microplate reader (Infinite F200, Tecan Group, Switzerland) with an integration time of 0.25 s per well.
50 nM MAO-A or 125 nM MAO-B were incubated with five different inhibitor concentrations (from 0.004 μM to 100 μM) for 15 min at RT in Promega MAO Buffer or Promega MAO-B Buffer (MAO-Glo Assay kit, catalogue number V1402, Promega, Madison, Wis.). […] After 30 min of incubation the reaction was stopped with the Promega detection reagent. The experiments were carried out in duplicate. IC50 was calculated using GraphPad Prism version 4.0 (GraphPad Software, San Diego, Calif.).

CD14 mRNA in THP-1 cells [2] = test: THP-1 target modulation, CD14 mRNA by quantitative RT-PCR; type: cell-based, human; conditions: 0.1 μM inhibitor, 5 days, normalized against TBP mRNA
Experimental: (§1) For this scope THP-1 cells (ACC 16: DSMZ Leibniz Institute DSMZ German collection of Microorganism and cell culture) were plated at cellular density of 50.000 cells/mL and were incubated with the inhibitor at a fixed concentration of 0.1 μM for 5 days. Then, the cells were recovered and mRNA extracted to follow mRNA levels of the macrophage-specific genes CD14. mRNA expression was measured by quantitative RT-PCR (Fast SYBR Green Master mix, Applied Biosystems Foster City, Calif.) using specific primers and normalized against TBP mRNA. […] Primers used in this study were: […]

human THP-1 cells = test: THP-1 methylcellulose assay, colony formation; type: cell-based; conditions: 500 nM inhibitor, 13 days, versus vehicle; for inhibition at 0.5 µM: Homo sapiens, THP-1, 312 h
Experimental: The KDM1A inhibitors were tested for their anti-clonogenic potential on human THP-1 cells (ACC 16: DSMZ Leibniz Institute DSMZ German collection of Microorganism and cell culture).
(§2) THP-1 cells were plated at a density of 250 cells per plate and cultured with the inhibitors at a fixed dose of 500 nM in MethoCult™ H4435 Enriched medium (StemCell Technologies, Vancouver, BC) for 13 days according to the manufacturer instructions. Then, the colony forming potential was scored by direct visualization using an inverted microscope and the percentage of inhibition over the vehicle was assessed. In addition, the cells were harvested and compounds-induced maturation was monitored by changes in the mRNA levels of macrophage-specific genes (CD14) as reported above.

CD14 mRNA in THP-1 cells [3] = test: THP-1 methylcellulose assay, CD14 mRNA in harvested cells; type: cell-based, human; conditions: THP-1 cells harvested from methylcellulose, 500 nM inhibitor, 13 days
Experimental: as §1, §2

[4] = target: T2, human recombinant KDM1A (LSD1)/CoRest complex (Homo sapiens, UniProt O60341); test: Assay of enzyme inhibition of KDM1A (LSD1), Amplex UltraRed/peroxidase; type: biochemical; conditions: result in words
T2 construct: made in house; host or cells: E. coli
Experimental: The complex of human recombinant KDM1A (LSD1)/CoRest protein was produced in E. coli as separate proteins and co-purified following previously reported procedures (Forneris F. et al. Trends Biochem. Sci. 2008, 33, 181-189; Forneris F. et al. J. Biol. Chem. 2007, 282, 20070-20074). The experiments were performed using a mono-methylated H3-K4 peptide containing 21 amino acids (custom synthesis done by Thermo Scientific) as substrate and in 50 mM TRIS, pH 8.0 and 0.05 mg/ml BSA. The peptide purity was >90% as checked by analytical high-pressure liquid chromatography and mass spectrometry.
The demethylase activity was estimated under aerobic conditions and at RT by measuring the release of H2O2 produced during the catalytic process by the Amplex® UltraRed detection system coupled with peroxidase assay. […] The conversion of the Amplex® Ultra Red reagent to resorufin was monitored in continuous by fluorescence (excitation at 540 nm, emission at 590 nm) using a microplate reader (Infinite 200, Tecan). […] The maximum demethylase activity of KDM1A/CoRest was obtained in the absence of inhibitors and corrected for background fluorescence in the absence of KDM1A/CoRest. The IC50 was calculated using GraphPad Software.

Compound: N[C@@H]1C[C@H]1c1ccc(NC(=O)c2cccc(N3CCOC3=O)c2)cc1 [Example 11, N-[4-[(1S,2R)-2-aminocyclopropyl]phenyl]-3-(2-oxooxazolidin-3-yl)benzamide Hydrochloride]
- IC50 [1]: ≤ 5 µM
- IC50 (MAO-A)/ IC50 (LSD1) (Human recombinant MAO A; hydrochloride): 5.93
- Target modulation CD14 mRNA expression (fold increase versus vehicle) (CD14 mRNA in THP-1 cells [2]; hydrochloride): 15.1 fold increase versus vehicle
- Colony formation % of Inhibition (human THP-1 cells; Hydrochloride, 0.5 µM): 36.3%
- Colony formation Target Modulation CD14 mRNA expression (Fold increase) (CD14 mRNA in THP-1 cells [3]; hydrochloride): 27.7 Fold increase

Compound: N[C@@H]1C[C@H]1c1ccc(NC(=O)c2cccc(N3CCOC3=O)c2)cc1 (relative stereo) [Example 3, N-[4-[trans-2-aminocyclopropyl]phenyl]-3-(2-oxooxazolidin-3-yl)benzamide hydrochloride]
- IC50 ([1]; Homo sapiens): ≤ 5 µM
- IC50 (MAO-A)/ IC50 (LSD1) (Human recombinant MAO A; hydrochloride): 3.30
- Target modulation CD14 mRNA expression (fold increase versus vehicle) (CD14 mRNA in THP-1 cells [2]; hydrochloride): 21.2 fold increase versus vehicle
- inhibition at 0.5 µM (human THP-1 cells): 41%
- Colony formation Target Modulation CD14 mRNA expression (Fold increase) (CD14 mRNA in THP-1 cells [3]; hydrochloride): 24.8 Fold increase

Compound: CN1CCN(c2ccc(C(=O)Nc3ccc([C@@H]4C[C@H]4N)cc3)cc2NC(=O)OCc2ccccc2)CC1 (relative stereo) [Example 7, Benzyl N-[5-[[4-[(trans-2-aminocyclopropyl]phenyl]carbamoyl]-2-(4-methylpiperazin-1-yl)phenyl]carbamate Dihydrochloride]
- IC50 ([1]; Homo sapiens): ≤ 5 µM
- IC50 (MAO-A)/ IC50 (LSD1) (Human recombinant MAO A): 11.2

Compound: N[C@@H]1C[C@H]1c1ccc(NC(=O)c2ccc(N3CCOCC3)cc2)cc1 (relative stereo) [Example 4, N-[4-[trans-2-aminocyclopropyl]phenyl]-4-morpholino-benzamide Hydrochloride]
- IC50 ([1]; Homo sapiens): 5 to 50 µM

Compound: CN1CCN(c2cc(C(=O)Nc3ccc([C@@H]4C[C@H]4N)cc3)ccc2NC(=O)OCc2ccccc2)CC1 (relative stereo) [Example 6, Benzyl N-[4-[[4-[trans-2-aminocyclopropyl]phenyl]carbamoyl]-2-(4-methylpiperazin-1-yl)phenyl]carbamate Dihydrochloride]
- IC50 ([1]; Homo sapiens): ≤ 5 µM
- IC50 (MAO-A)/ IC50 (LSD1) (Human recombinant MAO A): 15.3
- Target modulation CD14 mRNA expression (fold increase versus vehicle) (CD14 mRNA in THP-1 cells [2]): 13 fold increase versus vehicle

Compound: N[C@@H]1C[C@H]1c1ccc(NC(=O)c2ccc(N3CCOCC3)c(NC(=O)OCc3ccccc3)c2)cc1 (relative stereo) [Example 9, Benzyl N-[5-[[4-[trans-2-aminocyclopropyl]phenyl]carbamoyl]-2-morpholino-phenyl]carbamate hydrochloride]
- IC50 ([1]; Homo sapiens): ≤ 5 µM
- IC50 (MAO-A)/ IC50 (LSD1) (Human recombinant MAO A): 3.17

Compound: N[C@@H]1C[C@H]1c1ccc(NC(=O)c2ccccc2)cc1 (relative stereo) [Example 5b, N-[4-[trans-2-aminocyclopropyl]phenyl]benzamide, reference compound]
- IC50 ([1]; Homo sapiens): 50 to 100 µM
- IC50 (MAO-A)/ IC50 (LSD1) (Human recombinant MAO A): 1.56

Compound: N[C@@H]1C[C@H]1c1ccc(NC(=O)c2ccc(N3CCCCC3)c(NC(=O)OCc3ccccc3)c2)cc1 (relative stereo) [Example 8, Benzyl N-[5-[[4-[trans-2-aminocyclopropyl]phenyl]carbamoyl]-2-(1-piperidyl)phenyl]carbamate Hydrochloride]
- IC50 ([1]; Homo sapiens): ≤ 5 µM

Compound: N[C@@H]1C[C@H]1c1ccc(NC(=O)c2ccc(-c3ccccc3)cc2)cc1 (relative stereo) [Example 5e, N-[4-[trans-2-aminocyclopropyl]phenyl]-4-phenyl-benzamide, reference compound]
- activity on KDM1A (LSD1) [4]: inactive
- IC50 ([1]; Homo sapiens): ≤ 5 µM
- pIC50 (Human recombinant MAO A; 50 nM MAO-A, 15 min preincubation, read-out: MAO-A inhibition IC50): 7.27
- Target modulation CD14 mRNA expression (fold increase versus vehicle) (CD14 mRNA in THP-1 cells [2]): 2.2 fold increase versus vehicle

Compound: N[C@@H]1C[C@H]1c1ccc(NC(=O)c2ccc(N3CCOC3=O)cc2)cc1 (relative stereo) [Example 5, N-[4-[trans-2-aminocyclopropyl]phenyl]-4-(2-oxooxazolidin-3-yl)benzamide Hydrochloride]
- IC50 ([1]; Homo sapiens): 5 to 50 µM

Compound: N[C@H]1C[C@@H]1c1ccc(NC(=O)c2cccc(N3CCOC3=O)c2)cc1 [Example 13, N-[4-[(1R,2S)-2-aminocyclopropyl]phenyl]-3-(2-oxooxazolidin-3-yl)benzamide Hydrochloride]
- IC50 ([1]; Homo sapiens): ≤ 5 µM
- IC50 (MAO-A)/ IC50 (LSD1) (Human recombinant MAO A): 2.67
- Target modulation CD14 mRNA expression (fold increase versus vehicle) (CD14 mRNA in THP-1 cells [2]): 3.1 fold increase versus vehicle
- inhibition at 0.5 µM (human THP-1 cells): 19%
- Colony formation Target Modulation CD14 mRNA expression (Fold increase) (CD14 mRNA in THP-1 cells [3]): 6 Fold increase

From US10233165B2, “Cyclopropylamine compounds as histone demethylase inhibitors” (IEO—Instituto Europeo di Oncologia S.r.l., priority 2014, dated 2019)
